# In patent publication US9220243B2, “Models of atherosclerosis, hyperlipidemia, lipoprotein oxidation and blood vessel inflammation and methods for making and using them” (THE REGENTS OF THE UNIVERSITY OF CALIFORNIA, priority 2006, dated 2015):
# System: Fli:EGFP zebrafish larvae
# Assay: High fat diet zebrafish larvae model with fluorescent cholesterol ester, ezetimibe added to the tank water, confocal imaging
# Format: in vivo, zebrafish (Danio rerio)
# Conditions: 10 days on high fat diet with fluorescent (red) cholesterol ester
# Procedure: Spray cholesterol (4% in ether) on the fish food, let it dry for 2 hours in a fume hood. Collect and keep at 4° C. Feed the fish with high-cholesterol food for 7 days to 8 weeks.
# To visualize the lipid in larvae zebrafish, add to the cholesterol ether solution 10 μg/ml of cholesteryl BODIPY 576/589 C11 (Invitrogen, C12681). […] Feed fli:EGFP zebrafish with this high-cholesterol diet for one week.
# Use a fluorescent confocal microscope to image dorsal aorta of a fli:EGFP zebrafish (wild type or ApoE knockdown) that was placed on a high-cholesterol diet, and compare with a control zebrafish that was fed a normal diet.
# Visualize using a C1si confocal microscope: • endothelial cell morphology and the morphology of the vessel • accumulation of fluorescent lipid in the artery wall
# FIG. 5. Ezetimibe reduces cholesterol absorption in zebrafish intestine (A) and prevents vascular damage (B). Fli:EGFP zebrafish larvae were feeding for 10 days on high fat diet with a fluorescent (red) cholesterol ester, with or without the addition of ezetimibe in the tank water. Ezetimibe, or (3R,4S)-1-(4-fluorophenyl)-3-((3S)-3-(4-fluorophenyl)-3-hydroxypropyl)-4-(4-hydroxyphenyl)-2-azetidinone, is an FDA-approved medicine (marketed as ZETIA™), which inhibits the absorption of cholesterol by the small intestine. […] Remarkably, ezetimibe rescued blood vessels from high fat diet-induced damage.
smiles,measurement,setting,value
"O=C1[C@H](CC[C@H](O)c2ccc(F)cc2)[C@@H](c2ccc(O)cc2)N1c1ccc(F)cc1 [Ezetimibe, (3R,4S)-1-(4-fluorophenyl)-3-((3S)-3-(4-fluorophenyl)-3-hydroxypropyl)-4-(4-hydroxyphenyl)-2-azetidinone]",level of cholesterol accumulated in the digestive system (intensity of red fluorescence),FIG. 5(A),considerably reduced a level of cholesterol accumulated in the digestive system
same,pathological changes in the endothelial layer morphology inflicted by high fat diet (vascular damage),FIG. 5(B),prevented pathological changes in the endothelial layer morphology
